The values below come from patent publication US11160839B2, “Pediococcus pentosaceus CCFM1012 and application thereof to preparation of Campylobacter jejuni infection antagonism medicine” (Jiangnan University, priority 2018, dated 2021).

The assay deals with C. jejuni NCTC11168. Put plainly: Oxford cup inhibition zone test of lactic acid bacteria fermented supernate on Columbia blood agar. It is filed as cell-based. As to conditions: Campylobacter jejuni, positive control 0.30 mg/mL, 48 h at 37° C., read-out: Diameter of inhibition zone.

As to `CCn1cc(C(=O)O)c(=O)c2cc(F)c(N3CCNCC3)cc21` [norfloxacin], the zone of inhibition at 300 µg/mL was found to be 19.7 ± 0.83 mm.
